Experimental findings from US20250257060A1, “OXADIAZOLE COMPOUND, PHARMACEUTICAL COMPOSITION COMPRISING SAME, AND USE THEREOF” (SUZHOU GENHOUSE BIO CO., LTD., priority 2022, published 2025) are described below.

Data set [1] is described as follows: Phase I metabolic stability in dog liver microsomes (DLMs). It counts as in vitro ADME, beagle dogs. On the set-up: half-life: dose or concentration left out as unconfirmed. To be noted: DLM; for Remaining rate (NCF = 60 min): buffer instead of NADPH regeneration system; for Remaining rate (T = 60 min): with NADPH; for CLint scaled at 1 µM / half-life / microsomal CLint at 1 M: beagle, dog, liver microsomes, pH 7.4; for microsomal CLint at 1 M: read-out: CLint (mic). The procedure: (§1) Phase I metabolic stability of the test compounds in liver microsomes of CD-1 mice (MLMs), Sprague-Dawley rats (RLMs), beagle dogs (DLMs), cynomolgus monkeys (CLMs), and humans (HLMs) was evaluated.
(§2) The animal and human liver microsomes used in the test system were purchased from Xenotech, Corning, or other qualified suppliers and stored in a freezer at a temperature below −60° C. prior to use.
(§3) The test samples and control compounds were separately incubated with animal and human liver microsomes at 37±1° C. for a period of incubation time up to 60 min. The samples were removed at the indicated time points, and the reaction was stopped with acetonitrile or other organic solvents containing an internal standard. After centrifugation, the resulting supernatants were assayed by liquid chromatography-tandem mass spectrometry (LC-MS/MS).
(§4) 73.21 g of dipotassium hydrogenphosphate trihydrate and 10.78 g of potassium dihydrogenphosphate were dissolved in 4000 mL of ultrapure water. The solution was adjusted to pH 7.40±0.10 with 10% phosphoric acid or 1 M potassium hydroxide to make a final concentration of 100 mM.
(§5) The test sample powder was prepared into a stock solution at a certain concentration with DMSO or other organic solvents, which was then further diluted with a proper organic solvent.
(§6) Microsomes of each species were diluted into a 2× working solution with a 100 mM potassium phosphate buffer. The final concentration of the microsomes in the reaction system was 0.5 mg/mL.
(§7) An appropriate amount of nicotinamide adenine dinucleotide phosphate (NADP) and isocitric acid (ISO) powder was weighed out, dissolved in a magnesium chloride solution, and shaken and mixed well. An appropriate amount of isocitrate dehydrogenase (IDH) was added, and the mixture was mixed well by gently turning upside down. The final concentrations in the reaction system were: 1 mM NADP, 1 mM magnesium chloride, 6 mM ISO, and 1 unit/mL IDH.
(§8) Incubation was performed in a 96-well plate. Eight incubation plates were prepared and designated T0, T5, T15, T30, T45, T60, Blank60, and NCF60, respectively. The first 6 plates corresponded to reaction time points of 0, 5, 15, 30, 45, and 60 min, respectively. No test sample or control compound was added to the Blank60 plate, and samples were taken after 60 min of incubation. In the NCF60 plate, incubation was performed for 60 min using the potassium phosphate buffer instead of the NADPH regeneration system solution. Three replicates were made for samples in all conditions.
(§9) The microsomes and the test sample or control compound were mixed, and then the incubation plates Blank60, T5, T15, T30, T45, and T60 except for TO and NCF60 were placed in a 37° C. water bath for pre-incubation for about 10 min. In the incubation plate TO, a stop solution was first added, followed by addition of the NADPH regeneration system working solution, and 98 μL of the potassium phosphate buffer was added to each sample well of the incubation plate NCF60 to initiate the reaction. After the pre-incubations of the incubation plates Blank60, T5, T15, T30, T45, and T60 were completed, 98 μL of the NADPH regeneration system working solution was added to each sample well to initiate the reaction. The reaction temperature was 37±1° C., the final volume of the reaction was 200 μL, and the reaction system included 0.5 mg/mL microsomes, […], 1 mM NADP, 6 mM ISO, and 1 unit/mL IDH.
(§10) At 5 min, 15 min, 30 min, 45 min, and 60 min, a cold stop solution containing an internal standard was added to the reaction plate to stop the reaction.
(§11) All the reaction plates after the reaction was stopped were shaken well and centrifuged at 3220×g at 4° C. for 20 min. After the supernatant was diluted according to a certain proportion, LC-MS/MS analysis was performed.
(§12) Sample analysis was performed by the liquid chromatography-tandem mass spectrometry (LC-MS/MS) method without standard curves and quality control samples. […]

Data set [2] can be described thus: Phase I metabolic stability in monkey liver microsomes (CLMs). Type of data set: in vitro ADME, cynomolgus monkeys. On the set-up: microsomal CLint: dose or concentration left out as unconfirmed. To be noted: CLM; for Remaining rate (NCF = 60 min): buffer instead of NADPH regeneration system; for Remaining rate (T = 60 min): with NADPH; for CLint scaled at 1 µM / half-life at 1 M / microsomal CLint: cynomolgus monkey, liver microsomes, pH 7.4; for microsomal CLint: read-out: CLint (mic). On the procedure:
as §1, §2, §3, §4, §5, §6, §7, §8, §9, §10, §11, §12
In general terms: Liver microsomes are vesicles of endoplasmic reticulum, rich in cytochrome P450 enzymes.

A short description of data set [3]: Brain-to-blood drug concentration ratio of mice. Type of data set: in vivo. To be noted: mouse; for Kp at 1 h / Kp at 4 h: brain/plasma. An outline of the steps: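 Mice (9/group) dosed once IV or PO; orbital blood into K2-EDTA tubes for plasma, with brain homogenate, processed by acetonitrile precipitation (propafenone internal standard) and measured by LC-MS/MS. Ratio taken as brain tissue concentration over plasma concentration at the same time point.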

The mark [4] stands for this setting: brain, 2 mg/kg IV, read-out: Brain drug concentration.
The mark [5] stands for this setting: brain, 10 mg/kg PO, read-out: Brain drug concentration.
Where [6] appears, read: plasma, 2 mg/kg IV, read-out: Blood drug concentration.
[7] abbreviates: plasma, 10 mg/kg PO, read-out: Blood drug concentration.

Read-outs that look alike come from different tables or passages of the source.

On to `CC(F)(F)C(=O)N[C@@H]1CCCC[C@H]1N1Cc2ccc(-c3nnc(C(F)F)o3)cc2S1(=O)=O` [Compound 1], for which, in data set [1], the “Remaining rate (NCF = 60 min)” value amounted to 98.9%, the “Remaining rate (T = 60 min)” value amounted to 86.6%, the intrinsic clearance (CLint scaled) at 1 µM was < 0.828 L/h/kg and the half-life is > 2.42 h. Besides, the microsomal CLint at 1 M in data set [1] was < 9.6 µL/min/mg. In data set [2], the “Remaining rate (NCF = 60 min)” value was found to be 94.8%, the “Remaining rate (T = 60 min)” value is on record as 79.1%, the intrinsic clearance (CLint scaled) at 1 µM is < 0.78 L/h/kg and the half-life at 1 M was > 2.42 h. In addition, the microsomal CLint in data set [2] was < 9.6 µL/min/mg. Also, in data set [3] (setting [4]), the concentration at 1 h was found to be 0.285 µg/mL and the concentration at 4 h is 0.161 µg/mL. Besides, in data set [3] (setting [5]), the concentration at 1 h came to 0.759 µg/mL and the concentration at 4 h stood at 0.373 µg/mL. Also, in data set [3] (2 mg/kg IV), the Kp at 1 h was found to be 0.29 and the Kp at 4 h amounted to 0.36. Moreover, in data set [3] (10 mg/kg PO), the Kp at 1 h amounted to 0.18 and the concentration ratio (Kp) at 4 h is 0.15. Also, in data set [3] (setting [6]), the concentration at 1 h was 0.986 µg/mL and the concentration at 4 h was found to be 0.453 µg/mL. Also, in data set [3] (setting [7]), the concentration at 1 h stood at 4.27 µg/mL and the concentration at 4 h stood at 2.5 µg/mL.

`O=C(N[C@@H]1CCCC[C@H]1N1Cc2ccc(-c3nnc(C(F)F)o3)cc2S1(=O)=O)C(F)F` [Compound 2]: in data set [1], the “Remaining rate (NCF = 60 min)” value amounted to 90.9%, the “Remaining rate (T = 60 min)” value is 85.8%, the CLint scaled at 1 µM was < 0.828 L/h/kg and the half-life is > 2.42 h. The microsomal CLint at 1 M in data set [1] is < 9.6 µL/min/mg. In data set [2], the “Remaining rate (NCF = 60 min)” value stood at 101.5%, the “Remaining rate (T = 60 min)” value is given as 88.8%, the CLint scaled at 1 µM is < 0.78 L/h/kg and the half-life at 1 M is > 2.42 h. Moreover, the microsomal CLint in data set [2] was < 9.6 µL/min/mg. In data set [3] (setting [4]), the concentration at 1 h came out at 0.268 µg/mL and the concentration at 4 h is 0.149 µg/mL. Moreover, in data set [3] (setting [5]), the concentration at 1 h amounted to 0.882 µg/mL and the concentration at 4 h turned out to be 0.435 µg/mL. Moreover, in data set [3] (2 mg/kg IV), the partition ratio (Kp) at 1 h stood at 0.26 and the Kp at 4 h was determined as 0.25. Moreover, in data set [3] (10 mg/kg PO), the concentration ratio (Kp) at 1 h came to 0.18 and the Kp at 4 h is 0.15. Further, in data set [3] (setting [6]), the concentration at 1 h worked out at 1.09 µg/mL and the concentration at 4 h was 0.595 µg/mL. In addition, in data set [3] (setting [7]), the concentration at 1 h came to 4.99 µg/mL and the concentration at 4 h stood at 2.83 µg/mL.

By CLint scaled is commonly meant the rate of metabolic loss divided by the concentration. One may read the half-life as the time needed for the level to fall by half in the phase considered. Broadly, the Kp is the ratio of the level in a tissue or fluid to that in plasma or blood.
